Reference: article PMC8072281 (Frontiers in Immunology, 2021)

Columns and labels:
H-2K^b monomers = H-2K^b monomers (Mus musculus, UniProt P01901); type: binding
H-2K^b on RMA/S cells = type: cell-based, murine
[1] = test system: PPRV-peptide specific CD8+ T cells; design: species or system mouse (WT C57BL/6); conditions: mouse, in vivo
[2] = test system: peptide specific CD8+ T cells; design: species or system mouse (C57BL/6); conditions: mouse, in vivo

Chain of H-2K^b monomers (P01901 whole entry, looked up): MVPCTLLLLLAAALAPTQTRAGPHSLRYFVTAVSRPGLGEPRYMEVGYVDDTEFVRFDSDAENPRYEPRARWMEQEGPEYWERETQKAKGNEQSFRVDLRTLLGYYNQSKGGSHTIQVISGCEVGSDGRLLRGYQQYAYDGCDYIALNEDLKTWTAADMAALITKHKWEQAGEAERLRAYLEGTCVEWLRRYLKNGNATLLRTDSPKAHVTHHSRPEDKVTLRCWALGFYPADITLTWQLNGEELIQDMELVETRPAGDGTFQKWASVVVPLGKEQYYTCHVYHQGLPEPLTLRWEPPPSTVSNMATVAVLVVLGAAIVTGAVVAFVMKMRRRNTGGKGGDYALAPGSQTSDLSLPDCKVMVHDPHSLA

Row | Sequence | fold change values of H-2K^b monomer stabilization vs control peptide SIINFEKL (H-2K^b monomers) | stabilization of surface H-2K^b (H-2K^b on RMA/S cells) | tetramer positive CD8+ T cells, frequencies and numbers vs control [1] | magnitude of tetramer positive CD8+ T cells [2]
1 | IEHIFESPL | higher values as compared to other peptides |  |  | 
2 | IVVRRTAGV | higher values as compared to other peptides |  |  | 
3 | FMYLFLLGV |  | greater levels than the other peptides | not significantly different from the control animals | 
4 | SSITTRSRL | higher values as compared to other peptides |  |  | 
5 | VAFNILVTL | higher values as compared to other peptides |  |  | 
6 | IGLVRDFGL | higher values as compared to other peptides | greater levels than the other peptides | significantly higher frequencies and numbers | higher
7 | FSAGAYPLL | higher values as compared to other peptides | greater levels than the other peptides | significantly higher frequencies and numbers | higher
8 | VILDRERLV | higher values as compared to other peptides |  |  | 
